Assay results as given in PMC9896555, “Cyclic Acetals as Novel Long-Lasting Mosquito Repellents” (Journal of Agricultural and Food Chemistry, 2023).
Read-outs that look alike come from different tables or passages of the source.

What was measured:
Aedes albopictus [1] = assay: Effective dose / protection efficacy, human-bait technique; format: in vivo; settings: for pest or weed control at 0.081 µg/cm2, 0.081 µg/cm2 / pest or weed control at 0.17 µg/cm2, 0.17 µg/cm2 / pest or weed control at 0.33 µg/cm2, 0.33 µg/cm2 / pest or weed control at 0.5 µg/cm2, 0.5 µg/cm2 / pest or weed control at 0.83 µg/cm2, 0.83 µg/cm2 / pest or weed control at 1.7 µg/cm2, 1.7 µg/cm2 / pest or weed control at 8.3 µg/cm2, 8.3 µg/cm2 / pest or weed control at 16.7 µg/cm2, 16.7 µg/cm2 / pest or weed control at 83.3 µg/cm2, 83.3 µg/cm2: Aedes albopictus, topical, read-out: Protection efficacy PE%; for 100% PE: Table S1
Method: The repellence of DEET, Icaridin (both supplied by Istituto Biochimico VEBI s.r.l.), acetals, and the synthesized hydroxyacetals was evaluated againstAedes albopictususing the human-bait technique (to simulate the condition of human skin on which repellents will be applied).[22]A. albopictuswas reared and tested at 26 ± 2 °C, ≥60 ± 10% relative humidity (RH), and at 14:10 h light/dark photoperiod, within Plexiglas cylindrical laboratory cages (35 cm diameter, 60 cm length) with one end closed by a net. During the tests, cages contained ≈150 nulliparous, 4–7 day-old, nonblood-fed females. For each compound to be tested, up to six volunteers participated in the trial.
The study was approved by the Regional Ethics Committee for Clinical Trials of Tuscany Region with the registered number 20383. Volunteers agreed to take part in the experiments following informed consent; only volunteers non-allergic to mosquito bites participated in the trials. On the day of the bioassay, they had no contact with lotions, perfumes, oils, or perfumed soaps. They wore latex surgical gloves, in which a dorsal square area of 30 cm^2 was cut open. Mosquito-exposed skin was treated with 50 μL of ethanol, as the negative hand control. The other hand was treated with 50 μL of the tested compounds in ethanol solution (dosages corresponding to 0.081, 0.17, 0.33, 0.5, 0.83, 1.7, 8.3, 16.7, and 83.3 μg/cm^2). Both hands were presented in the same test cage. The number of probing mosquitoes in a 3 min exposure period was recorded. During each test, the control and the treated hand were presented interchanged to verify the mosquitoes’ readiness to bite. Trials were considered valid only if at least 30 mosquitoes performed probing behavior on the control hand before each repellent dosage was tested. The protection efficacy (PE %) obtained from all replicates was calculated, according to the WHO guidelines[31] using this formula [drawing 1]
To evaluate the protection efficacy, volunteers applied increasing doses of the compounds to the skin on the back of their hands (30 cm^2, while the rest was covered with a rubber glove) and counted the number of mosquitoes attempting to bite; the solvent only was used on the control hand. The protection (percentage of repelled mosquitoes) was calculated as reported in the Material and Methods section.

Aedes albopictus [2] = assay: Protection time at 0.17 mg/cm2, human-bait technique; format: in vivo; settings: for pest or weed control at 0.17 mg/cm2, 0.17 mg/cm2: Aedes albopictus, topical, read-out: Protection time PE%
Method: To evaluate the protection time of derivatives, the PE % was measured with 100 μL of a 5% ethanol solution, corresponding to 0.17 mg/cm^2 of exposed skin, under the same laboratory conditions. Mosquito-exposed skin was treated with 100 μL of ethanol, as the negative hand control. For each volunteer (up to 8), the test was performed every hour, up to 8 h from the application. The protection time of DEET and Icaridin was measured under the same conditions. Since these trials were run in parallel with those aimed to profile the cytotoxicity of the compounds (paragraph 2.6), we interrupted the experiments for those compounds showing to have higher cytotoxicity than Icaridin and DEET as soon as the results were available. For this reason, the number of volunteers differs among the compounds.
The average time until protection which was higher than 95% protection time was considered for each compound. Moreover, for the compounds tested on at least three volunteers, the complete (100%) protection time was also estimated (SPSS 28.01.0) using the Kaplan–Meier survivor function procedure.[22]

HaCaT cells = assay: Cytotoxicity on human keratinocytes (MTS); format: cell-based; settings: 82 μg/mL, 24 h
Method: HaCaT cells were cultured in 5% CO2 at 37 °C in Dulbecco’s modified Eagle’s medium (DMEM), supplemented with 10% fetal bovine serum (FBS), 1% L-glutamine ([…]), and 1% penicillin–streptomycin (Thermo Fisher Scientific, Rodano, Milan, Italy). […] Experiments were performed in triplicate.

RAW 264.7 = assay: Immunogenicity on murine macrophages (nitric oxide release); format: cell-based
Method: Cells were cultured in DMEM, with 10% FBS, 1% L-glutamine (2 mM), and 1% penicillin–streptomycin 100 U/mL at 37 °C in an atmosphere containing 5% CO2. RAW264.7 were seeded (1 × 10^5 cells/well) and exposed to five derivatives or Icaridin, at 82 μg/mL or to LPS (1 μg/mL) as a positive control, for 3 and 6 h. After that, nitric oxide release was determined in the culture media as previously described.[32] Experiments were performed in triplicate.

CCC(C)OC(=O)N1CCCCC1CCO (stereo not shown) [Icaridin, reference compound]
pest or weed control at 0.081 µg/cm2, 0.081 µg/cm2 (Aedes albopictus [1]): 42.4%
pest or weed control at 0.17 µg/cm2, 0.17 µg/cm2 (Aedes albopictus [1]): 53.7%
pest or weed control at 0.33 µg/cm2, 0.33 µg/cm2 (Aedes albopictus [1]): 61.8%
pest or weed control at 0.5 µg/cm2, 0.5 µg/cm2 (Aedes albopictus [1]): 77.8%
pest or weed control at 0.83 µg/cm2, 0.83 µg/cm2 (Aedes albopictus [1]): 69.3%
pest or weed control at 1.7 µg/cm2, 1.7 µg/cm2 (Aedes albopictus [1]): 99.6%
pest or weed control at 8.3 µg/cm2, 8.3 µg/cm2 (Aedes albopictus [1]): 100%
pest or weed control at 16.7 µg/cm2, 16.7 µg/cm2 (Aedes albopictus [1]): 100%
pest or weed control at 83.3 µg/cm2, 83.3 µg/cm2 (Aedes albopictus [1]): 100%
100% PE (Aedes albopictus [1]): 8.3 µg/cm2
Protection time PE% (Aedes albopictus [2]; 0.17mg/cm2, 0 min): 100%
pest or weed control at 0.17 mg/cm2, 0.17 mg/cm2 (Aedes albopictus [2]; 1 h): 100%
pest or weed control at 0.17 mg/cm2, 0.17 mg/cm2 (Aedes albopictus [2]; 2 h): 100%
pest or weed control at 0.17 mg/cm2, 0.17 mg/cm2 (Aedes albopictus [2]; 3 h): 99.5%
pest or weed control at 0.17 mg/cm2, 0.17 mg/cm2 (Aedes albopictus [2]; 4 h): 99.5%
pest or weed control at 0.17 mg/cm2, 0.17 mg/cm2 (Aedes albopictus [2]; 5 h): 99.8%
pest or weed control at 0.17 mg/cm2, 0.17 mg/cm2 (Aedes albopictus [2]; 6 h): 98.7%
pest or weed control at 0.17 mg/cm2, 0.17 mg/cm2 (Aedes albopictus [2]; 7 h): 98.7%
pest or weed control at 0.17 mg/cm2, 0.17 mg/cm2 (Aedes albopictus [2]; 8 h): 97.6%
Average PT >95% (% coefficient of variation) (Aedes albopictus [2]; at the dose of 0.17mg/cm2): 480 (2.2) min
Estimated 100% PT (complete protection time, mean±SE) (Aedes albopictus [2]; at the dose of 0.17mg/cm2, Kaplan–Meier estimate): 370 ± 52 min
survival of keratocytes (HaCaT cells): 91%
immunogenicity (nitric oxide release / nitrite production), in words (RAW 264.7; RAW264.7, 82 μg/mL, 6 h): three-time increase in the nitrite production compared to the control treatment
production of nitrite as compared to the positive control (RAW 264.7; RAW264.7, positive control LPS 1 μg/mL): 40%

CCCCC1(CCCC)OCC(CC)(CO)CO1 [16c]
pest or weed control at 0.081 µg/cm2, 0.081 µg/cm2 (Aedes albopictus [1]; 0.081 µg/cm2): 6.06%
pest or weed control at 0.17 µg/cm2, 0.17 µg/cm2 (Aedes albopictus [1]; 0.17 µg/cm2): 59.5%
pest or weed control at 0.33 µg/cm2, 0.33 µg/cm2 (Aedes albopictus [1]; 0.33 µg/cm2): 8.39%
pest or weed control at 0.5 µg/cm2, 0.5 µg/cm2 (Aedes albopictus [1]; 0.5 µg/cm2): 36.2%
pest or weed control at 0.83 µg/cm2, 0.83 µg/cm2 (Aedes albopictus [1]; 0.83 µg/cm2): 52.9%
pest or weed control at 1.7 µg/cm2, 1.7 µg/cm2 (Aedes albopictus [1]; 1.7 µg/cm2): 95.5%
pest or weed control at 8.3 µg/cm2, 8.3 µg/cm2 (Aedes albopictus [1]; 8.3 µg/cm2): 100%
pest or weed control at 16.7 µg/cm2, 16.7 µg/cm2 (Aedes albopictus [1]; 16.7 µg/cm2): 100%
pest or weed control at 83.3 µg/cm2, 83.3 µg/cm2 (Aedes albopictus [1]; 83.3 µg/cm2): 100%
100% PE (Aedes albopictus [1]): 1.7 µg/cm2
Protection efficacy (dose to obtain complete protection (100%) from bite attempts) (Aedes albopictus [1]; applied on skin of volunteers, 3 min exposure): 8.3 μg/cm^2
pest or weed control at 0.17 mg/cm2, 0.17 mg/cm2 (Aedes albopictus [2]; 0.17mg/cm2, 1 h): 99%
pest or weed control at 0.17 mg/cm2, 0.17 mg/cm2 (Aedes albopictus [2]; 0.17mg/cm2, 2 h): 96.3%
pest or weed control at 0.17 mg/cm2, 0.17 mg/cm2 (Aedes albopictus [2]; 0.17mg/cm2, 3 h): 97.6%
pest or weed control at 0.17 mg/cm2, 0.17 mg/cm2 (Aedes albopictus [2]; 0.17mg/cm2, 4 h): 97.1%
pest or weed control at 0.17 mg/cm2, 0.17 mg/cm2 (Aedes albopictus [2]; 0.17mg/cm2, 5 h): 94.8%
pest or weed control at 0.17 mg/cm2, 0.17 mg/cm2 (Aedes albopictus [2]; 0.17mg/cm2, 6 h): 95.4%
pest or weed control at 0.17 mg/cm2, 0.17 mg/cm2 (Aedes albopictus [2]; 0.17mg/cm2, 7 h): 95.1%
pest or weed control at 0.17 mg/cm2, 0.17 mg/cm2 (Aedes albopictus [2]; 0.17mg/cm2, 8 h): 99%
Average PT >95% (% coefficient of variation) (Aedes albopictus [2]; at the dose of 0.17mg/cm2): 480 (1.4) min
Protection time (95% protection) (Aedes albopictus [2]; dose of 0.17 mg/cm^2, tests ended after 8 h): 8 h
survival of keratocytes (HaCaT cells): > 88%
